{"source": "patent US20250082624A1", "about": "“METHODS OF TREATING COGNITIVE IMPAIRMENT” (NeuroTherapia, Inc., priority 2023, published 2025)", "test_system": "volunteers and AD patients", "experiment": "Phase 1b MAD safety and tolerability (adverse events, ECG, safety labs)", "format": "in vivo, human", "source_text": "Methods: All study procedures were approved by the IRB, and informed consent was obtained. Three cohorts of volunteers 45-80 years of age with well-controlled comorbidities (NOAD) and one cohort of AD patients diagnosed with cognitive impairment consistent with prodromal AD per International Working Group criteria or mild AD per National Institute on Aging—Alzheimer's Association criteria (n=6 active, 2 placebo per cohort) were enrolled. Participants were admitted to the study site for the duration of the dosing and returned 7-12 days after the last dose for a safety visit. Participants received NTRX-07 (10, 30, or 90 mg) or a placebo in a double-blinded randomization orally once daily for seven days. Subjects were assessed for changes in vital signs, including maneuvers to induce lightheadedness, electrocardiograms, 24-hour electroencephalograms (EEG), and safety laboratory studies. The second cohort returned and received a single repeat dose after a standard high-fat meal. The AD cohort also underwent cognitive testing and had blood samples for biomarkers drawn. Subjects had PK sampling done after the first and final dose of the study drug. An independent safety review committee conducted a blinded safety review of adverse events and plasma levels between each cohort.\nAssessments: Subjects were assessed for changes in vital signs, orthostatic blood pressure, Romberg test, nystagmus, timed get up and go, electrocardiograms, electroencephalograms (EEG), and laboratory studies. Subjective questionnaires of drug effects (ARCI-M) were administered. Cohort B returned and received a single repeat dose after a standard high-fat meal. The AD cohort also underwent cognitive testing (MMSE, ADAS-COG, MOCA) and had blood samples for biomarkers drawn.\nAn informational letter was filed with the FDA to inform them of this study. The study was designed as follows: • 3 healthy cohorts (cohorts A-C) followed by AD cohort (cohort D) treated at MTD • 6 treated, 2 placebos in each cohort • Doses: 10, 30, 90 mg/treatment—latter doses can be adjusted based on PK assessment • In unit, 7 days of treatment • Monitor vertigo with various tests: (1) timed get-up and go, (2) Nystagmus test, (3) Romberg test, and (4) changes in orthostatic blood pressure (Day 1, 3 and 8) • Use 24 hr EEG monitoring for CNS safety assessment • Assess plasma biomarkers of inflammation and AD pre- and post-treatment in AD cohort • Assess changes on cognition post-treatment using MMSE and ADAS-cog • Fed/fasted study to determine food effects on PK as a subset of the Phase 1b", "key": {"[1]": {"conditions": "Phase 1b, individual subjects on NTRX-07, Cohorts C and D (90 mg QD)"}}, "note": "“And” between values parts separate entries of the source, which are not always exact repeats. Identical values can stand only once. “Also recorded” adds a separate entry of the source."}
{"compound": "CC1(Cc2ccccc2)COc2cc(C(=O)N3CCCCC3)ccc21", "note": "(centres unmarked) [NTRX-07, 3-benzyl-3-methyl-2,3-dihydrobenzofuran-6-carboxylic acid-piperidine amide]", "values": [{"measurement": "Changes in ECG or safety labs", "setting": "Phase 1b", "result": "No clinically meaningful changes"}, {"measurement": "Dose-limiting toxicities / serious adverse events", "setting": "Phase 1b, 10, 30, 90 mg oral QD for 7 days", "result": "no dose-limiting or serious adverse events; also recorded: safely administered; also recorded: No dose limiting toxicities at any of the tested doses"}, {"measurement": "Adverse events observed during trial: Description of Event", "setting": "[1]", "result": "Subfebrility; also recorded: Heartburn; also recorded: Dry mouth; also recorded: Xerostomia; also recorded: Hypertension; also recorded: Nausea; also recorded: Hypertension,; also recorded: tachycardia; also recorded: Dizziness; also recorded: Presyncope; also recorded: Weakness"}, {"measurement": "Adverse events observed during trial: Related to Study Drug?", "setting": "[1]", "result": "Possible (7×) and Probable and None (2×)"}, {"measurement": "Adverse events observed during trial: Severity", "setting": "[1]", "result": "Mild (8×) and Moderate (2×)"}]}
